Marks after values point to notes of the source that are not given here.
Assays:
MDA-N = format: cell-based; conditions: Breast, 48 h
PC-3 = format: cell-based; conditions: PC-3, Prostate, 48 h
SN12C = format: cell-based; conditions: Renal, 48 h
[1] = system: Heterozygous nude CD-1 male mice; assay: Liver function (AST, ALT in plasma) and liver histopathology in treated mice
Procedure: Heterozygous nude CD-1 male mice were treated (i.p.) with multiple doses consisting of either one dose daily for three consecutive days (cis-AVTP or trans-AVTG, 21.25 μmol/kg, 6-TG, 8.5 or 21.25 μmol/kg, or vehicle; one cycle), or one dose daily for three consecutive days, repeated again five days later (cis-AVTP, trans-AVTG or 6-TG, 8.5 or 21.25 μmol/kg, or vehicle; two cycles).
The mice were sacrificed 24 h after the last treatment. Urine was collected for 24 h before initiation of treatment and every 24 h thereafter until the mice were sacrificed. Blood was collected by cardiac puncture and blood cells counted. Sections of liver, kidney, intestines, stomach and sternum were stained with hematoxylin and eosin and subjected to pathological analysis. Bone marrow smears were prepared for assessment of bone marrow cellularity. Liver function was evaluated by measuring alanine aminotransferase-(ALT) and aspartate aminotransferase (AST) activities in plasma. Kidney function was evaluated by measuring blood urea nitrogen in plasma and γ-glutamyltransferase activity and glucose levels in urine.

NCI/ADR-RES = conditions: 48 h
[2] = Homo sapiens, read-out: LC50 (the source's name)

Structure (SMILES): CC(=O)C=CSc1ncnc2nc[nH]c12 [cis-AVTP, 6-(2-acetylvinylthio) purine]
- TGI (MDA-N): 4.48 µM
- GI50 (MDA-N; Homo sapiens): 550 nM
- CC50 (MDA-N; [2]): > 100 µM
- GI50 (PC-3; Homo sapiens): 2050 nM
- CC50 (PC-3; [2]): 85.1 µM
- TGI (PC-3): 10.2 µM
- GI50 (SN12C; Homo sapiens): 2030 nM
- CC50 (SN12C; [2]): 28.1 µM
- TGI (SN12C): 5.75 µM
- ALT ([1]; 8.5 μmol/kg, two cycles): 7.8 ± 4.0^a SF U/ml
- AST ([1]; 8.5 μmol/kg, two cycles): 55.1 ± 37.5^a SF U/ml
- ALT ([1]; 21.25 μmol/kg, one cycle): 2.0 ± 2.0^a,* SF U/ml
- AST ([1]; 21.25 μmol/kg, one cycle): 25.5 ± 4.3^a SF U/ml
- ALT ([1]; 21.25 μmol/kg, two cycles): 16.0 ± 4.3^a,# SF U/ml
- AST ([1]; 21.25 μmol/kg, two cycles): 60.2 ± 30.8^a SF U/ml
- TGI (NCI/ADR-RES; Breast): 2.79 µM
- GI50 (NCI/ADR-RES; Homo sapiens): 510 nM
- CC50 (NCI/ADR-RES; Homo sapiens, read-out: LC50): > 100 µM
- GI50 (OVCAR-5; Homo sapiens, OVCAR-5, 48 h): 1310 nM
- CC50 (OVCAR-5; Homo sapiens, OVCAR-5, 48 h, read-out: LC50): 6.57 µM
- TGI (OVCAR-5; OVCAR-5, Ovarian, 48 h): 2.94 µM
- GI50 (OVCAR-8; Homo sapiens, OVCAR-8, 48 h): 1530 nM
- CC50 (OVCAR-8; Homo sapiens, OVCAR-8, 48 h, read-out: LC50): > 100 µM
- TGI (OVCAR-8; OVCAR-8, Ovarian, 48 h): 5.93 µM
- TGI (HCT-15; HCT-15, Colon, 48 h): 5.98 µM
- GI50 (HCT-15; Homo sapiens, HCT-15, 48 h): 1880 nM
- CC50 (HCT-15; Homo sapiens, HCT-15, 48 h, read-out: LC50): 41.3 µM
- TGI (HOP-92; HOP-92, Non-Small Cell Lung, 48 h): 5.45 µM
- GI50 (HOP-92; Homo sapiens, HOP-92, 48 h): 1690 nM
- CC50 (HOP-92; Homo sapiens, HOP-92, 48 h, read-out: LC50): 32.9 µM
- GI50 (SNB-19; Homo sapiens, SNB-19, 48 h): 3.66 µM
- CC50 (SNB-19; Homo sapiens, SNB-19, 48 h, read-out: LC50): 76.3 µM
- TGI (SNB-19; SNB-19, CNS, 48 h): 18.2 µM
- GI50 (MOLT-4; Homo sapiens, MOLT-4, 48 h): 360 nM
- CC50 (MOLT-4; Homo sapiens, MOLT-4, 48 h, read-out: LC50): > 100 µM
- TGI (MOLT-4; MOLT-4, Leukemia, 48 h): >100 µM

— patent US20040023994A1 (priority 2002, published 2004)
